Laboratory results published in patent US9376436B2, “2-(pyridin-2yl)-1, 7-diaza-spiro [4.4] nonane-6-one compound as voltage-gated sodium channels modulators” (CONVERGENCE PHARMACEUTICALS LIMITED, priority 2011, dated 2016).
Where a name gives a salt, the structure may show the parent alone. Read-outs that look alike come from different tables or passages of the source.

Target: T1, hNaV1.7 (Homo sapiens, UniProt Q15858)
T1 construct: expressed in transfected cells; host or cells: HEK293
Assay: QPatch NaV1.7 assay (whole-cell patch clamp, QPatch16x)
Type: cell-based
Settings: HEK293-hNaV1.7 cells
Protocol: The compounds of the invention were tested in a QPatch NaV1.7 assay.
HEK293-hNaV1.7 cells were grown in DMEM-F12+10% FBS culture media at 37° C. At a confluency of 50-70% cells were dissociated from culture flasks & triturated to ensure unicellular cell suspension; cell density was measured & adjusted to 2-3×10^6 cells/ml. Recordings were obtained using QPatch16x. The external solution was (in mM): NaCl, 128; KCl, 5; MgCl2, 2; CaCl2, 2; Glucose, 30; HEPES, 15; pH 7.3, 305-315 mOsm. Following seal formation and whole-cell access using internal solution (containing in mM: CsF, 135; EGTA/CsOH, 1/5; HEPES 10; NaCl, 10; pH 7.3, 310-320 mOsM), voltage pulse protocols were applied. Initially a steady state inactivation voltage protocol was used to determine the half-maximal voltage for steady state inactivation (V1/2 SSI). Two holding voltages were used to determine test drug inhibition: −90 mV, where most of the channels are in a closed state; and V1/2 SSI, where half of the channels are inactivated. Currents were elicited […] by stepping to a membrane potential of 0 mV for 20 ms. Four-point cumulative concentration responses were derived by determining the peak current amplitude at each concentration of test drug over 120 second application. Curves were fitted with the Hill equation yielding pIC50 values at −90 mV and V1/2 SSI holding potentials.

[1] = holding voltage V1/2 SSI (half of channels inactivated), read-out: QP Nav1.7 SSI vhalf pIC50 (converted)
[2] = holding voltage −90 mV (most channels closed), read-out: QP Nav1.7 −90 mV pIC50 (converted)

T1 sequence (Q15858 whole entry): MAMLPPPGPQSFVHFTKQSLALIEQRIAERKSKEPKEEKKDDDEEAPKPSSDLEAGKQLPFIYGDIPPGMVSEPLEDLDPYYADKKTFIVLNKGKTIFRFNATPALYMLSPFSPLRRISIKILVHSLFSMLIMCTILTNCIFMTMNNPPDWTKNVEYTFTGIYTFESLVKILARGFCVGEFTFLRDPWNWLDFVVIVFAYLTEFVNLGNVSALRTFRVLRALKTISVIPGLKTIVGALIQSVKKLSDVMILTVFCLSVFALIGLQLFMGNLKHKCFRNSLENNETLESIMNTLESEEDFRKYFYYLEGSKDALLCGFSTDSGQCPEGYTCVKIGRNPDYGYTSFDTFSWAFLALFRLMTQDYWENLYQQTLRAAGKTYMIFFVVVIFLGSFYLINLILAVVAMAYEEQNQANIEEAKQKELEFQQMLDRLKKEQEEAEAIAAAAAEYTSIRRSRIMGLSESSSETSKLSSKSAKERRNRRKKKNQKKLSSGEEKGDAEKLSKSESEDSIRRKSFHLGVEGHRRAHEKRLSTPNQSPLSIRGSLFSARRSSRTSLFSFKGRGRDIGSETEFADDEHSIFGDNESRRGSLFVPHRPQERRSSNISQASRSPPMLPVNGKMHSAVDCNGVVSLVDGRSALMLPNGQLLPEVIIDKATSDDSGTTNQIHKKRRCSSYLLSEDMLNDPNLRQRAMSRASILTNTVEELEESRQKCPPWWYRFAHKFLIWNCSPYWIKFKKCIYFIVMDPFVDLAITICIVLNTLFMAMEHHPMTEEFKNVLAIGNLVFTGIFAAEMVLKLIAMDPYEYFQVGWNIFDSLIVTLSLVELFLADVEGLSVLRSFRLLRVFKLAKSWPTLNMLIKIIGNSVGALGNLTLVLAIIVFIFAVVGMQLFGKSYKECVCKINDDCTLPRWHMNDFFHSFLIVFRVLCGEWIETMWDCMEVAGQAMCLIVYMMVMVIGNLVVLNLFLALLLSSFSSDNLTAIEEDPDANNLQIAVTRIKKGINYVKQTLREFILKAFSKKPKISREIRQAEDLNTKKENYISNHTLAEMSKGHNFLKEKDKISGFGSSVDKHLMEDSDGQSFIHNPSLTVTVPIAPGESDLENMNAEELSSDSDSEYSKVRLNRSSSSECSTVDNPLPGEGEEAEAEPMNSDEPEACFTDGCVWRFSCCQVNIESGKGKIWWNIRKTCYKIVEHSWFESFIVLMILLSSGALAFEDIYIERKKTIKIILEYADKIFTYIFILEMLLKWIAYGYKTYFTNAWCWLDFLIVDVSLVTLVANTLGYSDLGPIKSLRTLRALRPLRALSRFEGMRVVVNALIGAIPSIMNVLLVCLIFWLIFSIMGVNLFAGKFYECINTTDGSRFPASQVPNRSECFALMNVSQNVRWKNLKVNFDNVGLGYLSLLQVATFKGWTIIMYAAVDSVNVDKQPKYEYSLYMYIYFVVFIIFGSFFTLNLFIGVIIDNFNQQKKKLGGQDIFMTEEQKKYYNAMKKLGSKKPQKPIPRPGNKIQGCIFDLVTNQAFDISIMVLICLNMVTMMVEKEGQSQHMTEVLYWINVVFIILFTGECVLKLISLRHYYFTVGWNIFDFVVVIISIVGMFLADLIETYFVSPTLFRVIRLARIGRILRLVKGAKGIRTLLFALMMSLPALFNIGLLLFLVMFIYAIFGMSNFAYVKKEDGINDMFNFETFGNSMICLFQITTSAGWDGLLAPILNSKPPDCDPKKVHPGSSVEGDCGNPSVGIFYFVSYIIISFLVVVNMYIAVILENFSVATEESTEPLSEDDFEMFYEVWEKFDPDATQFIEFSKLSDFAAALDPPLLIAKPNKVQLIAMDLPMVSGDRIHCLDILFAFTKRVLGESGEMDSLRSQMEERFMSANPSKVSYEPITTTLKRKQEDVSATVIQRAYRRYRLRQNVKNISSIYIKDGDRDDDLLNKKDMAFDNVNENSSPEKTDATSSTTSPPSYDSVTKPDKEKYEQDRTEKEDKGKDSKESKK

Question: COc1cnc([C@H]2CC[C@]3(CCN(C)C3=O)N2)cc1-c1ccc(C(F)(F)F)cc1 [Example 152, (2R,5R)-2-[5-Methoxy-4-[4-(trifluoromethyl)phenyl]-2-pyridyl]-7-methyl-1,7-diazaspiro[4.4]nonan-6-one hydrochloride] was tested. Which IC50 [1] did it give?
Answer: Its IC50 is 15.8 µM.

Question: What about the IC50 [2] of the same molecule?
Answer: Its IC50 is 200 µM.

Question: Cc1c(-c2ccc(C(F)(F)F)cc2)ccnc1[C@@H]1CC[C@]2(CCN(C)C2=O)N1 [Example 15, (2S,5R)-7-Methyl-2-[3-methyl-4-[4-(trifluoromethyl)phenyl]-2-pyridyl]-1,7-diazaspiro[4.4]nonan-6-one hydrochloride] was tested. Which IC50 [1] did it give?
Answer: The IC50 was 6.31 µM.

Question: What about the IC50 [2] of the same molecule?
Answer: The IC50 was 25.1 µM.

Question: With CCOc1ccc(F)c(-c2ccnc([C@@H]3CC[C@@]4(CCCNC4=O)N3)c2)c1 [Example 109, (2S,5R)-2-[4-(5-Ethoxy-2-fluoro-phenyl)-pyridin-2-yl]-1,7-diaza-spiro[4.5]decan-6-one hydrochloride] as the molecule, how does the IC50 [1] read?
Answer: The IC50 was 1 µM.

Question: And the IC50 [2]?
Answer: Its IC50 is 2 µM.

Question: With CCc1ccc(F)c(-c2cc(C)nc([C@H]3CC[C@@]4(CCN(C)C4=O)N3)c2)c1 [Example 204, (2R,5S)-2-[4-(5-Ethyl-2-fluoro-phenyl)-6-methyl-2-pyridyl]-7-methyl-1,7-diazaspiro[4.4]nonan-6-one hydrochloride] as the molecule, how does the IC50 [1] read?
Answer: The IC50 was 5.01 µM.

Question: And the IC50 [2]?
Answer: Its IC50 is 31.6 µM.

Question: For COc1cc(C(F)(F)F)ccc1-c1cc([C@H]2CC[C@@]3(CCN(C)C3=O)N2)ncc1C [Example 131, (2R,5S)-2-[4-[2-Methoxy-4-(trifluoromethyl)phenyl]-5-methyl-2-pyridyl]-7-methyl-1,7-diazaspiro[4.4]nonan-6-one hydrochloride], which IC50 [1] is on record?
Answer: The IC50 was 2 µM.

Question: What about the IC50 [2] of the same molecule?
Answer: The IC50 was 100 µM.

Question: What does the source list for CCOc1ccc(F)c(-c2ccnc([C@H]3CC[C@]4(CC[C@H](C)NC4=O)N3)c2)c1 [Example 243, hydrochloride]?
Answer: IC50 [1]: 1.26 µM; IC50 [2]: 15.8 µM

Question: For CCOc1ccc(F)c(-c2ccnc([C@H]3CC[C@@]4(CCN(C)C4=O)N3)c2)c1 [Example 8, (2R,5S)-2-[4-(5-Ethoxy-2-fluoro-phenyl)-2-pyridyl]-7-methyl-1,7-diazaspiro[4.4]nonan-6-one hydrochloride], which IC50 [1] is on record?
Answer: Its IC50 is 0.794 µM.

Question: And the IC50 [2]?
Answer: The IC50 was 10 µM.

Question: What does the source list for CC1(C)C[C@]2(CC[C@H](c3cc(-c4cc(O)ccc4F)ccn3)N2)C(=O)N1 [Example 220, (2R,5R)-2-[4-(2-Fluoro-5-hydroxy-phenyl)-2-pyridyl]-8,8-dimethyl-1,7-diazaspiro[4.4]nonan-6-one]?
Answer: IC50 [1]: 50.1 µM; IC50 [2]: 200 µM

Question: For COc1cc(C(F)(F)F)ccc1-c1cc([C@@H]2CC[C@@]3(CCN(C)C3=O)N2)ncc1C [Example 132, (2S,5S)-2-[4-[2-Methoxy-4-(trifluoromethyl)phenyl]-5-methyl-2-pyridyl]-7-methyl-1,7-diazaspiro[4.4]nonan-6-one hydrochloride], which IC50 [1] is on record?
Answer: Its IC50 is 39.8 µM.

Question: And the IC50 [2]?
Answer: The IC50 was 251 µM.

Question: How did the IC50 [1] turn out when CC(C)Oc1ccc(-c2ccnc([C@H]3CC[C@@]4(CCN(C)C4=O)N3)c2)cc1 [Example 162, (2R,5S)-2-[4-(4-Isopropoxyphenyl)-2-pyridyl]-7-methyl-1,7-diazaspiro[4.4]nonan-6-one hydrochloride] was run?
Answer: The IC50 was 3.98 µM.

Question: And the IC50 [2]?
Answer: Its IC50 is 15.8 µM.

Question: Which IC50 [1] does the source give for CCOc1ccc(F)c(-c2cc([C@H]3CC[C@@]4(CCN(C)C4=O)N3)ncc2C)c1 [Example 137, (2R,5S)-2-[4-(5-Ethoxy-2-fluoro-phenyl)-5-methyl-2-pyridyl]-7-methyl-1,7-diazaspiro[4.4]nonan-6-one hydrochloride] here?
Answer: The IC50 was 20 µM.

Question: And the IC50 [2]?
Answer: The IC50 was 158 µM.

Question: With Cc1c(-c2ccc(F)cc2)ccnc1[C@H]1CC[C@@]2(CCN(C)C2=O)N1 [Example 19, (2R,5S)-2-[4-(4-Fluorophenyl)-3-methyl-2-pyridyl]-7-methyl-1,7-diazaspiro[4.4]nonan-6-one hydrochloride] as the molecule, how does the IC50 [1] read?
Answer: Its IC50 is 6.31 µM.

Question: What about the IC50 [2] of the same molecule?
Answer: Its IC50 is 50.1 µM.

Question: With CN1CC[C@@]2(CC[C@H](c3cc(-c4ccc5c(c4)CCO5)ccn3)N2)C1=O [Example 166, (2R,5S)-2-[4-(2,3-Dihydrobenzofuran-5-yl)-2-pyridyl]-7-methyl-1,7-diazaspiro[4.4]nonan-6-one hydrochloride] as the molecule, how does the IC50 [1] read?
Answer: The IC50 was 126 µM.

Question: What about the IC50 [2] of the same molecule?
Answer: The IC50 was 2000 µM.

Question: Which results are given for CN1CC[C@@]2(CC(F)C(c3cc(-c4ccc(C(F)(F)F)cc4)ccn3)N2)C1=O (single isomer, unassigned) [Example 238, hydrochloride]?
Answer: IC50 [1]: 2 µM; IC50 [2]: 50.1 µM

Question: Which IC50 [1] does the source give for CN1CCC[C@]2(CC[C@H](c3cc(-c4ccc(C(F)(F)F)cc4)ccn3)N2)C1=O [Example 70, (2R,5S)-7-Methyl-2-[4-(4-trifluoromethyl-phenyl)-pyridin-2-yl]-1,7-diaza-spiro[4.5]decan-6-one hydrochloride] here?
Answer: Its IC50 is 1 µM.

Question: What about the IC50 [2] of the same molecule?
Answer: Its IC50 is 12.6 µM.

Question: What does the source list for CN1CC[C@@]2(CC[C@H](c3cc(-c4ccc(F)cc4)ccn3)N2)C1=O [Example 66, (2R,5S)-2-[4-(4-Fluorophenyl)-2-pyridyl]-7-methyl-1,7-diazaspiro[4.4]nonan-6-one hydrochloride]?
Answer: IC50 [1]: 10 µM; IC50 [2]: 126 µM

Question: CCOc1c(F)cccc1-c1ccnc([C@H]2CC[C@@]3(CCN(C)C3=O)N2)c1 [Example 158, (2R,5S)-2-[4-(2-Ethoxy-3-fluoro-phenyl)-2-pyridyl]-7-methyl-1,7-diazaspiro[4.4]nonan-6-one hydrochloride] was tested. Which IC50 [1] did it give?
Answer: Its IC50 is 63.1 µM.

Question: What about the IC50 [2] of the same molecule?
Answer: Its IC50 is 1260 µM.

Question: With CCOc1ccc(F)c(-c2cc([C@@H]3CC[C@@]4(CCN(C)C4=O)N3)nc(C)c2C)c1 [Example 142, (2S,5S)-2-[4-(5-Ethoxy-2-fluoro-phenyl)-5,6-dimethyl-2-pyridyl]-7-methyl-1,7-diazaspiro[4.4]nonan-6-one hydrochloride] as the molecule, how does the IC50 [1] read?
Answer: The IC50 was 0.794 µM.

Question: And the IC50 [2]?
Answer: The IC50 was 15.8 µM.

Question: How did the IC50 [1] turn out when CCCOc1ccc(F)c(-c2ccnc([C@H]3CC[C@@]4(CCN(C)C4=O)N3)c2)c1 [Example 177, (2R,5S)-2-[4-(2-Fluoro-5-propoxy-phenyl)-2-pyridyl]-7-methyl-1,7-diazaspiro[4.4]nonan-6-one hydrochloride] was run?
Answer: The IC50 was 0.398 µM.

Question: And the IC50 [2]?
Answer: The IC50 was 12.6 µM.

Question: Which results are given for Cc1cc(-c2cc(N3CCCC3=O)ccc2F)cc([C@H]2CC[C@@]3(CCN(C)C3=O)N2)n1 [Example 203, (2R,5S)-2-[4-[2-Fluoro-5-(2-oxopyrrolidin-1-yl)phenyl]-6-methyl-2-pyridyl]-7-methyl-1,7-diazaspiro[4.4]nonan-6-one hydrochloride]?
Answer: IC50 [1]: 251 µM; IC50 [2]: 2000 µM

Question: How did the IC50 [1] turn out when COCc1cccc(-c2ccnc([C@H]3CC[C@@]4(CCN(C)C4=O)N3)c2)c1 [Example 168, (2R,5S)-2-[4-[3-(methoxymethyl)phenyl]-2-pyridyl]-7-methyl-1,7-diazaspiro[4.4]nonan-6-one hydrochloride] was run?
Answer: Its IC50 is 158 µM.

Question: What about the IC50 [2] of the same molecule?
Answer: Its IC50 is 316 µM.

Question: How did the IC50 [1] turn out when Cc1cc(-c2ccc(C(F)(F)F)cc2)cc([C@@H]2CC[C@@]3(CCCNC3=O)N2)n1 [Example 101, (2S,5R)-2-[6-Methyl-4-(4-trifluoromethyl-phenyl)-pyridin-2-yl]-1,7-diaza-spiro[4.5]decan-6-one hydrochloride] was run?
Answer: The IC50 was 10 µM.

Question: And the IC50 [2]?
Answer: The IC50 was 12.6 µM.

Question: Which results are given for CCOc1cc(-c2cc(C)nc([C@@H]3CC[C@]4(CCN(C)C4=O)N3)c2)ccc1F [Example 123, (2S,5R)-2-[4-(3-Ethoxy-4-fluoro-phenyl)-6-methyl-2-pyridyl]-7-methyl-1,7-diazaspiro[4.4]nonan-6-one hydrochloride]?
Answer: IC50 [1]: 39.8 µM; IC50 [2]: 251 µM

Question: How did the IC50 [1] turn out when Cc1cc(-c2ccc(C(F)(F)F)cc2)cc([C@@H]2CC[C@@]3(CCNC3=O)N2C)n1 [Example 226, (2S,5S)-1-Methyl-2-[6-methyl-4-[4-(trifluoromethyl)phenyl]-2-pyridyl]-1,7-diazaspiro[4.4]nonan-6-one hydrochloride] was run?
Answer: Its IC50 is 12.6 µM.

Question: What about the IC50 [2] of the same molecule?
Answer: Its IC50 is 1580 µM.

Question: How did the IC50 [1] turn out when Cc1cnn(-c2ccc(F)c(-c3ccnc([C@H]4CC[C@@]5(CCN(C)C5=O)N4)c3)c2)c1 [Example 183, (2R,5S)-2-[4-[2-Fluoro-5-(4-methylpyrazol-1-yl)phenyl]-2-pyridyl]-7-methyl-1,7-diazaspiro[4.4]nonan-6-one hydrochloride] was run?
Answer: The IC50 was 3.16 µM.

Question: What about the IC50 [2] of the same molecule?
Answer: Its IC50 is 63.1 µM.

Question: With CCOc1ccc(F)c(-c2ccnc([C@H]3CC[C@]4(CCN(C)C4=O)N3)c2)c1 [Example 146, (2R,5R)-2-[4-(5-Ethoxy-2-fluoro-phenyl)-2-pyridyl]-7-methyl-1,7-diazaspiro[4.4]nonan-6-one hydrochloride] as the molecule, how does the IC50 [1] read?
Answer: The IC50 was 2 µM.

Question: And the IC50 [2]?
Answer: Its IC50 is 31.6 µM.

Question: With CN1CC[C@@]2(CC[C@H](c3cc(-c4cc5[nH]ncc5cc4F)ccn3)N2)C1=O [Example 186, (2R,5S)-2-[4-(5-Fluoro-1H-indazol-6-yl)-2-pyridyl]-7-methyl-1,7-diazaspiro[4.4]nonan-6-one hydrochloride] as the molecule, how does the IC50 [1] read?
Answer: The IC50 was 158 µM.

Question: And the IC50 [2]?
Answer: Its IC50 is 6310 µM.

Question: For CCOc1ccc(F)c(-c2ccnc([C@@H]3CC[C@]4(CCCNC4=O)N3)c2)c1 [Example 106, (2S,5S)-2-[4-(5-Ethoxy-2-fluoro-phenyl)-pyridin-2-yl]-1,7-diaza-spiro[4.5]decan-6-one hydrochloride], which IC50 [1] is on record?
Answer: The IC50 was 2 µM.

Question: And the IC50 [2]?
Answer: The IC50 was 5.01 µM.

Question: Which results are given for CCOc1ccc(-c2cc(C)nc([C@H]3CC[C@@]4(CCN(C)C4=O)N3)c2)cc1 [Example 89, (3R,5S)-3-[4-(4-Ethoxyphenyl)-6-methyl-2-pyridyl]-8-methyl-4,8-diazaspiro[4.4]nonan-9-one hydrochloride]?
Answer: IC50 [1]: 3.16 µM; IC50 [2]: 50.1 µM
